According to US20250304537A1 (Repare Therapeutics Inc., priority 2022, published 2025):
Like-named read-outs stand apart in the source and are kept apart here.

Legend:
[1] = target: recombinant human Myt1 (full length PKMYT1) (Homo sapiens (Human), UniProt Q99640); assay: Recombinant human Myt1 kinase assay (ADP-Glo); assay type: biochemical; details: 10 μM ATP
Method in brief: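 Full-length insect-cell-expressed human Myt1 (18 nM final) was preincubated with compound (0.5% DMSO) for 15 min at 22 °C. The reaction ran with 10 μM ATP for 60 min at 30 °C in HEPES buffer with Mg2+/Mn2+ and DTT. ADP formed was read by ADP-Glo luminescence, giving IC50 and % max inhibition.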

[2] = system: PKMYT1 (CDK1 pThr14) in FUOV1 cells; assay: PKMYT1 cell-based activity assay, CDK1 pThr14 AlphaLISA in FUOV1 cells; details: read-out: FUOV-1 CDK1 pThr14 IC50
Method in brief: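 FUOV1 cells were treated with PKMYT1 inhibitor for 2 h at 37 °C, then lysed. CDK1 pThr14 was measured by AlphaLISA, pairing an anti-pThr14 antibody with an anti-total CDK1 antibody (5 nM each). Signal read at 680/615 nm and used to derive IC50.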

recombinant human Myt1 (full length PKMYT1), sequence (Q99640 whole entry): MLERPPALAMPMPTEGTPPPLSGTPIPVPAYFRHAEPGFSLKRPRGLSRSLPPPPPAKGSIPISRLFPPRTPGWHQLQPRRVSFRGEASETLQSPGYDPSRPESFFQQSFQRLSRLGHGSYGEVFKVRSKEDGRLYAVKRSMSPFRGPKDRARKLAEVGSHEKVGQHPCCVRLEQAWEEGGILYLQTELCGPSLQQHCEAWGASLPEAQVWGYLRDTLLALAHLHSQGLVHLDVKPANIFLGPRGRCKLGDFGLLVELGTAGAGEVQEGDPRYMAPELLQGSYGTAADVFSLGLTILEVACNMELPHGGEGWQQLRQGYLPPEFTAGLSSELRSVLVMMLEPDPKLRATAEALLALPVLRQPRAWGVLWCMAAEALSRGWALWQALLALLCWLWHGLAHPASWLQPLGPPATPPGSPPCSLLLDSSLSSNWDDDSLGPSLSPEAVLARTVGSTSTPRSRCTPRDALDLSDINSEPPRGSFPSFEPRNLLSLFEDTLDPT

Structure (SMILES) | IC50 [1] | IC50 ([2]; 2 h, 2 h compound incubation) | IC50 ([2]; 2 h incubation) | IC50 ([2]; 2 h, 2 h incubation) | IC50 ([2]; 2 h, 2 hours with compound)
Cc1ccc2[nH]ncc2c1-c1nc(-c2ccccc2NC(=O)C(C)(C)C)cc(C(N)=O)c1N [Compound 398] | 7 nM | 28 nM | – | – | –
Cc1ccc2[nH]ncc2c1-c1cc(-c2cccc(N[C@H](CO)c3ccccc3)n2)nc(C(N)=O)c1N [Compound 274] | 3 nM | – | – | 136 nM | –
CCCc1ccccc1-c1nc(C(N)=O)c(N)c(-c2c(C)ccc3[nH]ncc23)n1 [Compound 796] | 15 nM | – | – | – | 781 nM
Cc1ccc(O)c(C)c1-c1cc(-c2cncs2)nc(C(N)=O)c1N [Compound 82] | 7 nM | – | – | 107 nM | –
Cc1ccc2[nH]ncc2c1-c1nc(Nc2ncccc2-c2ccncn2)nc(C(N)=O)c1N [Compound 818, 5-amino-6-(5-methyl-1H-indazol-4-yl)-2-((3-(pyrimidin-4-yl)pyridin-2-yl)amino)pyrimidine-4-carboxamide] | 3880 nM | – | – | – | > 10000 nM
Cc1ccc2[nH]ncc2c1-c1cc(-c2ccccn2)nc(C(N)=O)c1N [Compound 87] | 11 nM | – | – | 567 nM | –
Cc1ccc2[nH]ncc2c1-c1nc(-c2cccnc2Nc2cccc(C(N)=O)c2)nc(C(N)=O)c1N [Compound 609] | 4 nM | 414 nM | – | – | –
Cc1cccc(-c2cc(-c3c(C)ccc(O)c3C)c(N)c(C(N)=O)n2)n1 [Compound 83] | 6 nM | – | – | 188 nM | –
Cc1ccc(O)c(C)c1-c1cc(-c2cnccn2)nc(C(N)=O)c1N [Compound 26] | 3 nM | – | – | 76 nM | –
Cc1ccc(NC(=O)C2(C)CC2)c(-c2nc(C(N)=O)c(N)c(-c3c(C)ccc4[nH]ncc34)n2)c1 [Compound 437] | 8 nM | 59 nM | – | – | –
COCCCOc1nccc(-c2cc(-c3c(C)ccc4[nH]ncc34)c(N)c(C(N)=O)n2)n1 [Compound 197] | 12 nM | – | – | 267 nM | –
Cc1ccc(O)c(C)c1-c1cc(-c2cccc(C(N)=O)c2)nc(C(N)=O)c1N [Compound 51] | 8 nM | – | – | 357 nM | –
Cc1ccc2[nH]ncc2c1-c1nc(-c2ccccc2NC(=O)C23CC(F)(C2)C3)nc(C(N)=O)c1N [Compound 448] | 7 nM | 112 nM | – | – | –
Cc1ccc2[nH]ncc2c1-c1nc(-c2ccccc2NC(C)C(F)(F)F)cc(C(N)=O)c1N (stereo not drawn) [Compound 406] | 5 nM | 53 nM | – | – | –
Cc1ccc2[nH]ncc2c1-c1nc(-c2cccnc2Nc2ccccc2)nc(C(N)=O)c1N [Compound 607] | 6 nM | 319 nM | – | – | –
Cc1cccc(NC(=O)C2(C)CC2)c1-c1nc(C(N)=O)c(N)c(-c2c(C)ccc3[nH]ncc23)n1 [Compound 457] | 516 nM | > 10000 nM | – | – | –

Structure (SMILES) | IC50 [1] | IC50 ([2]; 2 h, 2 h compound incubation) | IC50 ([2]; 2 h incubation) | IC50 ([2]; 2 h, 2 h incubation) | IC50 ([2]; 2 h, 2 hours with compound)
Cc1ccc2[nH]ncc2c1-c1nc(-c2cc(F)c(F)cc2NC2CCN(C)CC2)nc(C(N)=O)c1N [Compound 485] | 7 nM | 53 nM | – | – | –
Cc1ccc2[nH]ncc2c1-c1cc(-c2ccnc(Oc3cccnc3)n2)nc(C(N)=O)c1N [Compound 199] | 6 nM | – | – | 137 nM | –
Cc1ccncc1Nc1ncccc1-c1nc(C(N)=O)c(N)c(-c2c(C)ccc3[nH]ncc23)n1 [Compound 599] | 363 nM | 630 nM | – | – | –
COc1cccc(-c2cc(-c3c(C)ccc(O)c3C)c(N)c(C(N)=O)n2)n1 [Compound 66] | 2 nM | – | 168 nM | – | –
Cc1ccc2[nH]ncc2c1-c1nc(-c2cc(F)cc(F)c2NCC(F)F)nc(C(N)=O)c1N [Compound 436] | 7 nM | 206 nM | – | – | –
Cc1ccc(O)c(C)c1-c1cc(Cl)nc(C(N)=O)c1N [Compound 17] | 36 nM | – | – | 8670 nM | –
Cc1ccc2[nH]ncc2c1-c1cc(-c2cccc(OCC3COC3)n2)nc(C(N)=O)c1N [Compound 268] | 9 nM | – | – | 261 nM | –
Cc1ccc2[nH]ncc2c1-c1nc(-c2cc(F)ccc2NS(=O)(=O)C2(C)CC2)nc(C(N)=O)c1N [Compound 482] | 5 nM | 114 nM | – | – | –
Cc1ccc2[nH]ncc2c1-c1nc(-c2ccccc2NC(C)C)nc(C(N)=O)c1N [Compound 419] | 4 nM | 49 nM | – | – | –
Cc1ccc2[nH]ncc2c1-c1cc(-c2ccnc(OCCc3ccncc3)n2)nc(C(N)=O)c1N [Compound 263] | 19 nM | – | – | – | –
Cc1ccc2[nH]ncc2c1-c1cc(-c2ncccn2)nc(C(N)=O)c1N [Compound 219] | 56 nM | – | – | – | –
CCC(C)COc1cccc(-c2cc(-c3c(C)ccc4[nH]ncc34)c(N)c(C(N)=O)n2)n1 (stereo not drawn) [Compound 361] | 35 nM | – | – | – | –
Cc1ccc2[nH]ncc2c1-c1cc(-c2ccnc(N3CCCC3CO)n2)nc(C(N)=O)c1N (stereo not drawn) [Compound 373] | 20 nM | – | – | – | –
NC(=O)c1nc(-c2cccnc2)cc(-c2c(C(F)(F)F)ccc3[nH]ncc23)c1N [Compound 325] | > 2000 nM | – | – | – | –
Cc1ccc(O)cc1-c1nc(-c2ccc(C#N)cc2)nc(C(N)=O)c1N [Compound 23] | 51 nM | – | – | – | –

The remaining lines, values ahead:

IC50 [1] | IC50 ([2]; 2 h, 2 h compound incubation) | IC50 ([2]; 2 h incubation) | IC50 ([2]; 2 h, 2 h incubation) | IC50 ([2]; 2 h, 2 hours with compound) | Structure (SMILES)
5 nM | – | 40 nM | – | – | Cc1ccc(O)c(C)c1-c1cc(-c2ccnnc2)nc(C(N)=O)c1N [Compound 63]
6 nM | – | – | 368 nM | – | Cc1ccc(O)c(C)c1-c1cc(-c2ccco2)nc(C(N)=O)c1N [Compound 50]
13 nM | – | – | 232 nM | – | Cc1ccc2[nH]ncc2c1-c1cc(-c2ccnc(OCCO)n2)nc(C(N)=O)c1N [Compound 299]
4 nM | 13 nM | – | – | – | Cc1ccc2[nH]ncc2c1-c1nc(-c2ccccc2NC(=O)C2CC2)nc(C(N)=O)c1N [Compound 397]
5 nM | 8 nM | – | – | – | Cc1ccc(-c2nc(C(N)=O)c(N)c(-c3c(C)ccc4[nH]ncc34)n2)c(Nc2nccnc2C)n1 [Compound 658]
16 nM | – | – | 1700 nM | – | Cc1ccc2[nH]ncc2c1-c1cc(-c2ccnnc2)nc(C(N)=O)c1N [Compound 95]
8 nM | – | – | 414 nM | – | CSc1nccc(-c2cc(-c3c(C)ccc4[nH]ncc34)c(N)c(C(N)=O)n2)n1 [Compound 167]
7 nM | – | – | 388 nM | – | Cc1ccc2[nH]ncc2c1-c1cc(-c2ccnc(OC(C)C)n2)nc(C(N)=O)c1N [Compound 160, 3-amino-6-(2-isopropoxypyrimidin-4-yl)-4-(5-methyl-1H-indazol-4-yl)picolinamide]
4 nM | – | 191 nM | – | – | Cc1ccc2[nH]ncc2c1-c1cc(-c2cccc(OCc3ncco3)n2)nc(C(N)=O)c1N [Compound 267]
122 nM | 2460 nM | – | – | – | Cc1ccc2[nH]ncc2c1-c1nc(-c2ccccc2C(F)F)nc(C(N)=O)c1N [Compound 414]
4 nM | 136 nM | – | – | – | Cc1ccc2[nH]ncc2c1-c1nc(-c2cccc(F)c2NCC(F)F)nc(C(N)=O)c1N [Compound 435]
10 nM | – | – | 357 nM | – | Cc1ccc(O)c(C)c1-c1cc(-c2cnccn2)cc(C(N)=O)c1N [Compound 84]
10 nM | 37 nM | – | – | – | COc1cccnc1Nc1cc(F)ccc1-c1nc(C(N)=O)c(N)c(-c2c(C)ccc3[nH]ncc23)n1 [Compound 614]
8 nM | – | – | 433 nM | – | Cc1nc2cccc(-c3nc(C(N)=O)c(N)c(-c4c(C)ccc5[nH]ncc45)n3)c2s1 [Compound 389]
3 nM | 5 nM | – | – | – | Cc1ncc(C#N)c(Nc2cc(F)ccc2-c2nc(C(N)=O)c(N)c(-c3c(C)ccc4[nH]ncc34)n2)n1 [Compound 618]
293 nM | – | – | – | – | CO[C@@H](COc1cccc(-c2nc(C(N)=O)c(N)c(-c3c(C)ccc4[nH]ncc34)n2)c1)c1ccccc1 [Compound 354]
